Values quoted from earlier work as cited in US20040241258A1, “Insect repellent for humans and animals” (priority 2003, published 2004).

Settings: in vivo

**Q.** For `CCN(CC)C(=O)c1cccc(C)c1` [DEET, N, N-diethyl-meta-toulamide], which “time remaining in the blood stream after use” value is on record?
**A.** The value was 30 days.
